Results as given in patent publication US9486536B2 (Immunomedics, Inc., priority 2013, dated 2016).

Legend:
[1] = relative to doxorubicin; cited from earlier work
[2] = system: Daudi, Raji, Ramos and JVM-3 hematopoietic tumor lines; test: cytotoxicity of P2PDox-mAb conjugates to target cells; assay type: cell-based; settings: not shown
Source text: The cytotoxicity of P2PDox-mAb conjugates to target cells was examined. hRS7-P2PDox and hMN-15-P2PDox were cytotoxic to MDA-MB-468, AG S, NCI-N87 and Capan-1 solid tumor cell lines (not shown). hMN-14-P2PDox was cytotoxic to Capan-1, BxPC-3 and AsPC-1 human pancreatic tumor lines and AGS, NCI-N87 and LS147T human gastric and colonic tumor lines (not shown). hLL2-P2PDOx was cytotoxic to Daudi, Raji, Ramos and JVM-3 hematopoietic tumor lines (not shown). IC50 values for the conjugates were in the nanomolar concentration range (not shown).

[3] = biological target: CD22 (Homo sapiens, UniProt P20273); test: antibody binding to target antigen after conjugation
[4] = system: Non-Hodgkin's Lymphoma (NHL); test: treatment of NHL patients; assay type: in vivo, human
Method: A P2PDox-epratuzumab ADC is prepared as described in Examples 1 and 3 above. Seventeen patients with previously untreated or relapsed NHL receive 4 doses of 70, 100 or 150 mg P2PDox-epratuzumab injected i.v. every two weeks. Responses are assessed by CT scans, with other evaluations including adverse event, B-cell blood levels, serum epratuzumab levels and human anti-epratuzumab (HAHA) titers.

[5] = system: moderately active SLE; test: open-label study in SLE patients
Method: An open-label, single-center study of patients with moderately active SLE (total British Isles Lupus Assessment Group (BILAG) score 6 to 12) is conducted. Patients receive dosages of epratuzumab-P2PDox (conjugated at a drug/antibody ratio of 3.5) of 10, 20, 40 and 60 mg conjugate i.v. every other week for 3 injections, repeated 4 months later. Evaluations include safety, SLE activity (BILAG), blood levels of B and T cells, and human anti-epratuzumab antibody (HAHA) titers.

[6] = 4 doses of 70, 100 or 150 mg i.v. every two weeks, 17 patients

| Compound | cytotoxicity, times that of doxorubicin [1] | cytotoxicity [2] | effect of conjugation on antibody binding [3] | complete response/complete response unconfirmed rate [4, 6] [%] | objective response rate [4, 6] [%] | transient B-cell depletion ([4]; all dosage levels) | human anti-epratuzumab antibody (HAHA) in serum samples ([4]; human, in vivo) | objective responses continuing for 30 weeks or more ([4]; human, in vivo) | safety issues ([4]; reversible after interrupting therapy) | decrease of total BILAG scores ([5]; all patients, 10, 20, 40 and 60 mg i.v. every other week for 3 injections, drug/antibody ratio 3.5) | patients with improvement in at least one BILAG B- or C-level disease activity ([5]; at 6, 10 and 18 weeks) [%] | average decrease of B-cell levels ([5]; at 18 weeks) [%] | patients with BILAG decreases continuing to at least 18 weeks ([5]; human, in vivo) [%] | tolerability ([5]; human, in vivo) |
| --- | --- | --- | --- | --- | --- | --- | --- | --- | --- | --- | --- | --- | --- | --- |
| COc1cccc2c1C(=O)c1c(O)c3c(c(O)c1C2=O)C[C@@](O)(C(=O)CO)C[C@@H]3O[C@H]1C[C@H](N2C=CCC2)[C@H](O)[C@H](C)O1 [2-pyrrolinodoxorubicin] | 500-1000 times | – | – | – | – | – | – | – | – | – | – | – | – | – |
| hLL2-P2PDox | – | cytotoxic | lack of effect of conjugation on antibody binding to target antigen | 24 | 47 | up to 25% | negative | Four of the eight | neutropenia up to Grade 3 | at least 50% | 93 | 35 | 92 | well tolerated |
